Converted amounts (≈) assume the structure as drawn.
Assays:
[1] = system: Moloney murine leukemia virus (MoLV); experiment: in vitro XC plaque assay: inhibition of murine leukemia virus plaque growth (mouse SC-1 cells, rat XC cells); type: cell-based; conditions: SC1, compounds added 2 hours prior to virus, read-out: IC50 (concentration giving a 50% inhibition of virus plaque growth)
Protocol: This assay was performed according to the method of Rowe et al. (Virology, 1970, 42, 1136-39) as previously described by L. Hsu, et al. (J. Virological Methods, 1980, 1, 167-77) and T. L. Bowlin and M. R. Proffitt (J. Interferon Res., 983, 3(1), 19-31). Mouse SC-1 cells (fibroblast) (10^5) were seeded into each well of 6-well cluster plates (Costar #3506) in 4 ml Minimum Essential Medium (MEM) with 10% Fetal Calf Serum (FCS). Following an 18 hour incubation period (37° C.), Moloney murine leukemia virus (MoLV) was applied at a predetermined titer to give optimal (i.e. countable) numbers of virus plaques. Compounds were added 2 hours prior to addition of the virus. Three days later the culture medium was removed, the SC-1 cell monolayers were exposed to UV irradiation (1800 ergs), and rat XC cells (10^6) were seeded into each well in 4 ml MEM. Following an additional 3 day incubation (37° C.), these cells were fixed with ethyl alcohol (95%) and stained with 0.3% crystal violet. Plaques were then counted under low magnification. The antiviral activities of various compounds of this invention are tabulated in Table I in terms of the IC50, i,e, the concentration giving a 50% inhibition of virus plaque growth.

HIVlGB8 strain of HIV-1 = experiment: anti-HIV activity in JM T-cells pretreated with HIV-1 (syncytial cell count and p24 antigen); type: cell-based; conditions: after 4 days; for Syncytial count: untreated 29
Protocol: To further confirm the antiretroviral activity of these compounds, 6-(4-phenylphenoxy)hexan-1-ol was evaluated for activity against HIV. Following overnight pretreatment of T-cells (JM cells) with the HIVlGB8 strain of HIV-1, 6-(4-phenylphenoxy)hexan-1-ol was added to the cell cultures at concentrations of 15 and 7.5 μg/ml. After 4 days the number of synctial cells in the cell culture and the amount of p24 antigen, also a measure of viral replication, were determined.

[2] = system: HIV and other retroviruses; conditions: previously shown; cited from earlier work

Compound | IC50 [1] [µg/mL] | further results
OCCCCOc1ccc(OCc2ccccc2)cc1 [4-(4-Benzyloxyphenoxy)butan-1-ol, 4-(4-Benzyloxyphenoxy)-butan-1-ol] | 1 to 10 (≈ 3.67 to 36.7 µM) | 
Cc1cc(C)c(OCCCCCCO)c(C)c1 [6-(2,4,6-Trimethylphenoxy)hexan-1-ol, 6-(2,4,6-trimethylphenoxy)hexan-1-ol] | 5 (≈ 21.2 µM) | 
OCCCCCCOc1ccc2ccccc2c1 [6-(2-Naphthylenyloxy)hexan-1-ol, 6-(2-naphthylenyloxy)hexan-1-ol] | 5 to 10 (≈ 20.5 to 40.9 µM) | 
OCCCCCCOc1ccc(OCc2ccccc2)cc1 [6-(4-Benzyloxyphenoxy)hexan-1-ol] | 1 to 10 (≈ 3.33 to 33.3 µM) | 
OCCCCCCOc1ccc(Cc2ccccc2)cc1 [6-(4-Benzylphenoxy)hexan-1-ol] | 1 to 10 (≈ 3.52 to 35.2 µM) | 
O=C(O)CCC(=O)OCCCCCCOc1ccc(-c2ccccc2)cc1 [6-(4-PhenYlphenoxV)-1-hexYl succinate (monoester)] | 1 to 10 | 
OCCCCCCOc1ccc(-c2ccccc2)cc1 [6-(4-Phenylphenoxy)hexan-1-ol] | 2.5 to 5 (≈ 9.25 to 18.5 µM) | Syncytial count (HIVlGB8 strain of HIV-1; 7.5 μg/ml): 8; Syncytial count (HIVlGB8 strain of HIV-1; 15 μg/ml): 0; P24 antigen (HIVlGB8 strain of HIV-1; 15 μg/ml, untreated 801): 62 pg × 10^3 /ml; inhibition at 7.5 µg/mL (HIVlGB8 strain of HIV-1; Human immunodeficiency virus 1, T-cell, 96 h, 7.5 μg/ml, syncytial count vs untreated): 72%; inhibition at 15 µg/mL (HIVlGB8 strain of HIV-1; Human immunodeficiency virus 1, T-cell, 96 h, 15 μg/ml, syncytial count vs untreated): 100%
OCCCCCCOc1ccccc1 [6-Phenoxyhexan-1-ol, 6-phenoxyhexan-1-ol] | 1 (≈ 5.15 µM) | 
O[C@H]1[C@H](O)[C@@H](O)CN2CC[C@H](O)[C@H]12 [castanospermine] |  | activity against HIV and other retroviruses [2]: activity against HIV and other retroviruses
heparin |  | activity against HIV and other retroviruses [2]: activity against HIV and other retroviruses
